Measured values published in ChEMBL document CHEMBL3351614, “Discovery of 1a,2,5,5a-tetrahydro-1H-2,3-diaza-cyclopropa[a]pentalen-4-carboxamides as potent and selective CB2 receptor agonists” (Bioorg Med Chem Lett, 2015).

Assays:
[1] = Cmax in Sprague-Dawley rat at 3 mg/kg, po after 0.4 hrs; format: ADME, organism-based; set-up: dose 3 mg/kg, route oral; conditions: in vivo
[2] = Cmax in Sprague-Dawley rat at 2 mg/kg, iv and 3 mg/kg, po; format: ADME, organism-based; conditions: in vivo
[3] = Ratio of drug level in brain to plasma in Sprague-Dawley rat at 3 mg/kg, po after 2 hrs; format: ADME, organism-based; set-up: dose 3 mg/kg, route oral; conditions: read-out: BPR
[4] = Volume of distribution at steady state in Sprague-Dawley rat at 2 mg/kg, iv and 3 mg/kg, po; format: ADME, organism-based; conditions: in vivo, read-out: Vdss
[5] = Drug uptake in Sprague-Dawley rat brain at 3 mg/kg, po after 2 hrs; format: ADME, organism-based; set-up: dose 3 mg/kg, route oral; conditions: read-out: Drug uptake
[6] = Oral bioavailability in Sprague-Dawley rat at 3 mg/kg; format: ADME, organism-based; conditions: in vivo
[7] = AUClast in Sprague-Dawley rat at 2 mg/kg, iv and 3 mg/kg, po; format: ADME, organism-based; conditions: plasma
[8] = test system: Rattus norvegicus; test: Toxicity in rat assessed as reduction in core temperature at 0.3 mg/kg, ip; format: organism-based; set-up: dose 0.3 mg/kg, route intraperitoneal; conditions: in vivo

Compound: CC(C)(NC(=O)c1nn(C(C)(C)C)c2c1C[C@H]1C[C@@H]21)c1ccccc1
- Cmax [1]: 33 ng/mL

Compound: CC(C)(CO)NC(=O)c1nn(-c2ccc(F)cc2F)c2c1C[C@H]1C[C@@H]21
- Cmax [2]: 808 ng/mL
- Kp at 2 h [3]: 0.356
- Vd [4]: 0.851 L/kg
- concentration at 2 h [5]: 623 ng/g
- bioavailability [6]: 35.9%
- AUC(0-t) [7]: 4480 ng·h/mL

Compound: CCCCCCC(C)(C)c1ccc([C@@H]2C[C@H](O)CC[C@H]2CCCO)c(O)c1 [CP-55940]
- T [8]: > 2 °C
